In EP4559911A1, “NOVEL HETEROCYCLIC COMPOUND AND PHARMACEUTICAL COMPOSITION FOR INHIBITING AUTOTAXIN COMPRISING THE SAME” (Nextgen Bioscience Co., Ltd., priority 2022, dated 2024) one finds inhibition data, which are given here for 14 compounds.

Molecules are shown by their SMILES.

This assay concerns the target human Autotaxin protein (Homo sapiens, UniProt Q13822). The assay can be described thus: Evaluation of the inhibitory activity against human Autotaxin protein (18:1 LysoPC substrate, choline assay kit, absorbance at 570 nm). It counts as biochemical. Particulars: compound at 500nM; 2 hours at 37 °C; % inhibition = (1 - absorbance test group / absorbance control group) X 100. The procedure, abridged:
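Human autotaxin (20 μL of 240 nM stock) was reacted with sonicated 18:1 LysoPC (10 μL of 360 μM stock) in Tris pH 8.0 buffer with BSA for 2 h at 37 °C, using 6 compound concentrations from 5-fold dilution. Released choline was detected via choline oxidase/dye probe (30 min), read as absorbance at 570 nm. % inhibition was calculated relative to control.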

Take `Cc1ncn(C2CN(c3nnc(-c4cnc(NC5Cc6cc(F)c(F)cc6C5)nc4)o3)C2)n1` [Example 80, N-(5,6-difluoro-2,3-dihydro-1H-inden-2-yl)-5-(5-(3-(3-methyl-1H-1,2,4-triazol-1-yl)azetidin-1-yl)-1,3,4-oxadiazol-2-yl)pyrimidin-2-amine]: the inhibition – broadly, the drop in the measured response relative to a control, in per cent – at 0.5 µM came to 10.4%.
For `Fc1cc2c(cc1F)CC(Nc1ncc(-c3nnc(N4CC(N5CCOCC5)C4)o3)cn1)C2` [Example 81, N-(5,6-difluoro-2,3-dihydro-1H-inden-2-yl)-5-(5-(3-morpholinoazetidin-1-yl)-1,3,4-oxadiazol-2-yl)pyrimidin-2-amine] the value was 7%; for `CC1(c2c[nH]nn2)CN(C(=O)/C=C/c2cnc(NC3Cc4ccccc4C3)nc2)C1` [Example 82, (E)-3-(2-((2,3-dihydro-1H-inden-2-yl)amino)pyrimidin-5-yl)-1-(3-methyl-3-(1H-1,2,3-triazol-4-yl)azetidin-1-yl)prop-2-en-1-one], 98%; for `FC1(c2c[nH]nn2)CN(c2nnc(-c3cnc(NC4Cc5ccccc5C4)nc3)o2)C1` [Example 83, N-(2,3-dihydro-1H-inden-2-yl)-5-(5-(3-fluoro-3-(1H-1,2,3-triazol-4-yl)azetidin-1-yl)-1,3,4-oxadiazol-2-yl)pyrimidin-2-amine], 81.6%.
For `CC(C)(C)C(=O)OCn1cc(C2CN(c3nnc(-c4cnc(NC5Cc6ccncc6C5)nc4)o3)C2)nn1` (centres unmarked) [Example 84, (4-(1-(5-(2-((6,7-dihydro-5H-cyclopenta[c]pyridin-6-yl)amino)pyrimidin-5-yl)-1,3,4-oxadiazol-2-yl)azetidin-3-yl)-1H-1,2,3-triazol-1-yl)methyl pivalate] the value was 1.1%; for `c1cc2c(cn1)CC(Nc1ncc(-c3nnc(N4CC(c5c[nH]nn5)C4)o3)cn1)C2` (centres unmarked) [Example 85, N-(5-(5-(3-(1H-1,2,3-triazol-4-yl)azetidin-1-yl)-1,3,4-oxadiazol-2-yl)pyrimidin-2-yl)-6,7-dihydro-5H-cyclopenta[c]pyridin-6-amine], 19.8%.
For `CC(C)(C)C(=O)OCn1cc(C2CN(c3nnc(-c4cnc(NCc5ccc6c(c5)OCO6)nc4)o3)C2)nn1` [Example 86, (4-(1-(5-(2-((benzo[d][1,3]dioxol-5-ylmethyl)amino)pyrimidin-5-yl)-1,3,4-oxadiazol-2-yl)azetidin-3-yl)-1H-1,2,3-triazol-1-yl)methyl pivalate] the value was 2.8%; for `c1cc2c(cc1CNc1ncc(-c3nnc(N4CC(c5c[nH]nn5)C4)o3)cn1)OCO2` [Example 87, 5-(5-(3-(1H-1,2,3-triazol-4-yl)azetidin-1-yl)-1,3,4-oxadiazol-2-yl)-N-(benzo[d][1,3]dioxol-5-ylmethyl)pyrimidin-2-amine], 18%; for `CN(c1ncc(-c2nnc(N3CC(c4c[nH]nn4)C3)o2)cn1)C1Cc2cc(F)c(F)cc2C1` [Example 88, 5-(5-(3-(1H-1,2,3-triazol-4-yl)azetidin-1-yl)-1,3,4-oxadiazol-2-yl)-N-(5,6-difluoro-2,3-dihydro-1H-inden-2-yl)-N-methylpyrimidin-2-amine], 10.5%.
The compound `FC1(c2c[nH]nn2)CN(c2nnc(-c3cnc(NC4Cc5ccc(Br)cc5C4)nc3)o2)C1` (centres unmarked) [Example 89, N-(5-bromo-2,3-dihydro-1H-inden-2-yl)-5-(5-(3-fluoro-3-(1H-1,2,3-triazol-4-yl)azetidin-1-yl)-1,3,4-oxadiazol-2-yl)pyrimidin-2-amine] displayed an inhibition at 0.5 µM of 84.9%.
The figure for `O=C(CCCc1nnc(NC2Cc3cc(F)c(F)cc3C2)o1)N1CC(c2c[nH]nn2)C1` [Example 90, 1-(3-(1H-1,2,3-triazol-4-yl)azetidin-1-yl)-4-(5-((5,6-difluoro-2,3-dihydro-1H-inden-2-yl)amino)-1,3,4-oxadiazol-2-yl)butan-1-one] is 17.9%; for `Clc1ccc2c(c1)CC(Nc1ncc(-c3nnc(N4CC(c5c[nH]nn5)C4)o3)cn1)C2` (centres unmarked) [Example 91, 5-(5-(3-(1H-1,2,3-triazol-4-yl)azetidin-1-yl)-1,3,4-oxadiazol-2-yl)-N-(5-chloro-2,3-dihydro-1H-inden-2-yl)pyrimidin-2-amine] it is 97.1%.
Consider `Clc1ccc(CCNc2ncc(-c3nnc(N4CCC(c5c[nH]nn5)C4)o3)cn2)cc1` (centres unmarked) [Example 92, 5-(5-(3-(1H-1,2,3-triazol-4-yl)pyrrolidin-1-yl)-1,3,4-oxadiazol-2-yl)-N-(4-chlorophenethyl)pyrimidin-2-amine], for which the inhibition at 0.5 µM turned out to be 85.5%.
For `Clc1ccc(CCNc2ncc(-c3nnc(N4CC(c5c[nH]nn5)C4)o3)cn2)cc1` [Example 93, 5-(5-(3-(1H-1,2,3-triazol-4-yl)azetidin-1-yl)-1,3,4-oxadiazol-2-yl)-N-(4-chlorophenethyl)pyrimidin-2-amine] the value was 89.3%.
